# Biological target: T1, full length active recombinant SYK enzyme (Homo sapiens, UniProt P43405)
# T1 construct: full length active recombinant SYK enzyme (Millipore, Calif.); purchased Millipore
# Assay: Inhibition of Syk tyrosine phosphorylation activity (LANCE TR-FRET kinase assay)
# Format: biochemical
# Settings: 1 nM active SYK enzyme, 550 nM SYK-substrate, 100 μM ATP, 1 hour at room temperature
row,SMILES,IC50 [µM]
1,"NC(=O)c1nnc(N[C@@H]2CCCC[C@@H]2N)nc1Nc1csc2ncccc12 [Example 37, 3-(((1R,2S)-2-aminocyclohexyl)amino)-5-(thieno[2,3-b]pyridin-3-ylamino)-1,2,4-triazine-6-carboxamide]",0.001 to 0.01
2,"NC(=O)c1nnc(N[C@@H]2CCCC[C@@H]2N)nc1Nc1ccc(-c2ncccn2)cc1 [Example 3, 3-(((1R,2S)-2-aminocyclohexyl)amino)-5-((4-(pyrimidin-2-yl)phenyl)amino)-1,2,4-triazine-6-carboxamide]",0.001 to 0.01
3,"NC(=O)c1nnc(N[C@@H]2CCCC(F)(F)[C@@H]2N)nc1Nc1ccc2c(c1)CCC2 [Example 213, 3-(((1R,2R)-2-amino-3,3-difluorocyclohexyl)amino)-5-((2,3-dihydro-1H-inden-5-yl)amino)-1,2,4-triazine-6-carboxamide]",0.01 to 0.1
4,"CC[C@@H](Nc1nnc(C(N)=O)c(Nc2ccc(C)c(OC)c2)n1)C(N)=O [Example 231, (R)-3-((1-amino-1-oxobutan-2-yl)amino)-5-((3-methoxy-4-methylphenyl)amino)-1,2,4-triazine-6-carboxamide]",0.01 to 0.1
5,"N#Cc1ccc(Nc2nc(N[C@@H]3CCCC[C@@H]3N)nnc2C(N)=O)cc1 [Example 75, 3-(((1R,2S)-2-aminocyclohexyl)amino)-5-((4-cyanophenyl)amino)-1,2,4-triazine-6-carboxamide]",0.01 to 0.1
6,"NC(=O)c1nnc(N[C@@H]2CCCC[C@@H]2N)nc1Nc1ccc(C(=O)N2CCC2)nc1 [Example 66, 3-(((1R,2S)-2-aminocyclohexyl)amino)-5-((6-(azetidine-1-carbonyl)pyridin-3-yl)amino)-1,2,4-triazine-6-carboxamide]",0.01 to 0.1
7,"Cc1ccc(Nc2nc(N[C@H](CC(F)(F)F)C(N)=O)nnc2C(N)=O)cc1 [Example 144, (R)-3-((1-amino-4,4,4-trifluoro-1-oxobutan-2-yl)amino)-5-(p-tolylamino)-1,2,4-triazine-6-carboxamide]",0.01 to 0.1
8,"CC[C@@H](Nc1nnc(C(N)=O)c(Nc2ccc3c(c2)CCC3)n1)C(N)=O [Example 211, (R)-3-((1-amino-1-oxobutan-2-yl)amino)-5-((2,3-dihydro-1H-inden-5-yl)amino)-1,2,4-triazine-6-carboxamide]",0.001 to 0.01
9,"Cn1cc(C#N)c2ccc(Nc3nc(N[C@H](CC(F)F)C(N)=O)nnc3C(N)=O)cc21 [Example 147, (R)-3-((1-amino-4,4-difluoro-1-oxobutan-2-yl)amino)-5-((3-cyano-1-methyl-1H-indol-6-yl)amino)-1,2,4-triazine-6-carboxamide]",0.001 to 0.01
10,"NC(=O)c1nnc(N[C@@H]2CCCC[C@@H]2N)nc1Nc1ccc(C(=O)N2CCC2)cc1 [Example 63, 3-(((1R,2S)-2-aminocyclohexyl)amino)-5-((4-(azetidine-1-carbonyl)phenyl)amino)-1,2,4-triazine-6-carboxamide]",0.01 to 0.1
11,"CC[C@@H](Nc1nnc(C(N)=O)c(Nc2cccc(C(F)(F)F)c2)n1)C(N)=O [Example 171, (R)-3-((1-amino-1-oxobutan-2-yl)amino)-5-((3-(trifluoromethyl)phenyl)amino)-1,2,4-triazine-6-carboxamide]",0.1 to 1
12,"NC(=O)c1nnc(N[C@@H]2CCCC(F)(F)[C@@H]2N)nc1Nc1ccc2scnc2c1 [Example 245, 3-(((1R,2R)-2-amino-3,3-difluorocyclohexyl)amino)-5-(benzo[d]thiazol-5-ylamino)-1,2,4-triazine-6-carboxamide]",0.01 to 0.1
13,"NC(=O)c1nnc(N[C@H](CC(F)F)C(N)=O)nc1Nc1cc(Cl)c2ncccc2c1 [Example 185, (R)-3-((1-amino-4,4-difluoro-1-oxobutan-2-yl)amino)-5-((8-chloroquinolin-6-yl)amino)-1,2,4-triazine-6-carboxamide]",0.001 to 0.01
14,"CC[C@@H](Nc1nnc(C(N)=O)c(Nc2ccc3scnc3c2)n1)C(N)=O [Example 246, (R)-3-((1-amino-1-oxobutan-2-yl)amino)-5-(benzo[d]thiazol-5-ylamino)-1,2,4-triazine-6-carboxamide]",0.01 to 0.1
15,"Cc1ccc(Nc2nc(N[C@@H]3CCCC(F)(F)[C@@H]3N)nnc2C(N)=O)cc1Cl [Example 219, 3-(((1R,2R)-2-amino-3,3-difluorocyclohexyl)amino)-5-((3-chloro-4-methylphenyl)amino)-1,2,4-triazine-6-carboxamide]",0.01 to 0.1
16,"NC(=O)c1nnc(N[C@@H]2CCCC[C@@H]2N)nc1Nc1cccc(-n2cncn2)c1 [Example 5, 5-((3-(1H-1,2,4-triazol-1-yl)phenyl)amino)-3-(((1R,2S)-2-aminocyclohexyl)amino)-1,2,4-triazine-6-carboxamide]",0.001 to 0.01
17,"NC(=O)c1nnc(N[C@@H]2CCCC(F)(F)[C@@H]2N)nc1Nc1cnn2ccccc12 [Example 36, 3-(((1R,2R)-2-amino-3,3-difluorocyclohexyl)amino)-5-(pyrazolo[1,5-a]pyridin-3-ylamino)-1,2,4-triazine-6-carboxamide]",0.01 to 0.1
18,"CC[C@@H](Nc1nnc(C(N)=O)c(Nc2ccc(Cl)c(C)c2)n1)C(N)=O [Example 221, (R)-3-((1-amino-1-oxobutan-2-yl)amino)-5-((4-chloro-3-methylphenyl)amino)-1,2,4-triazine-6-carboxamide]",0.01 to 0.1
19,"CC[C@@H](Nc1nnc(C(N)=O)c(Nc2ccc(C(F)(F)F)c(C(F)(F)F)c2)n1)C(N)=O [Example 135, (R)-3-((1-amino-1-oxobutan-2-yl)amino)-5-((3,4-bis(trifluoromethyl)phenyl)amino)-1,2,4-triazine-6-carboxamide]",0.01 to 0.1
20,"Cn1ccc2ccc(Nc3nc(N[C@@H]4CCOC[C@@H]4N)nnc3C(N)=O)cc21 [Example 165, 3-(((3R,4R)-3-aminotetrahydro-2H-pyran-4-yl)amino)-5-((1-methyl-1H-indol-6-yl)amino)-1,2,4-triazine-6-carboxamide]",0.001 to 0.01
21,"CC(C)C[C@@H](Nc1nnc(C(N)=O)c(Nc2ccc3c(ccc[n+]3[O-])c2)n1)C(N)=O [Example 54, (R)-6-((3-((1-amino-4-methyl-1-oxopentan-2-yl)amino)-6-carbamoyl-1,2,4-triazin-5-yl)amino)quinoline 1-oxide]",0.01 to 0.1
22,"NC(=O)c1nnc(N[C@H](CC(F)(F)F)C(N)=O)nc1Nc1ccc2ncccc2c1 [Example 149, (R)-3-((1-amino-4,4,4-trifluoro-1-oxobutan-2-yl)amino)-5-(quinolin-6-ylamino)-1,2,4-triazine-6-carboxamide]",0.001 to 0.01
23,"CN(C)c1ccc(Nc2nc(N[C@@H]3CCCC[C@@H]3N)nnc2C(N)=O)cc1Cl [Example 175, 3-(((1R,2S)-2-aminocyclohexyl)amino)-5-((3-chloro-4-(dimethylamino)phenyl)amino)-1,2,4-triazine-6-carboxamide]",0.001 to 0.01
24,"Cn1ccc2c(Nc3nc(NCc4cc[nH]n4)nnc3C(N)=O)cccc21 [Example 91, 3-(((1H-pyrazol-3-yl)methyl)amino)-5-((1-methyl-1H-indol-4-yl)amino)-1,2,4-triazine-6-carboxamide]",0.1 to 1
25,"NC(=O)c1nnc(N[C@@H]2CCCC[C@@H]2N)nc1Nc1cccc(C(F)(F)F)c1 [Example 170, 3-(((1R,2S)-2-aminocyclohexyl)amino)-5-((3-(trifluoromethyl)phenyl)amino)-1,2,4-triazine-6-carboxamide]",0.001 to 0.01

# Source: patent publication US9040530B2, “1,2,4-triazine-6-carboxamide kinase inhibitors” (Portola Pharmaceuticals, Inc., priority 2012, dated 2015)
